Source: patent publication US10954214B2 (Janssen Pharmaceutica NV, priority 2016, dated 2021)
pIC50: −log10 of the molar value.

Key:
TMD8 cells = test: 4-day proliferation assay, TMD8; type: cell-based; conditions: Homo sapiens, 96 h, 4 days incubation, CellTiterGLO, read-out: Anti-proliferation: TMD-8 IC50
How it was run: (§1)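 Each line was plated at 10,000 cells per well for linear growth, with no beta-mercaptoethanol during the assay. OCI-Ly3 cells were below passage 10.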

OCI-Ly3 cells = test: 4-day proliferation assay, OCI-Ly3; type: cell-based, human; conditions: Homo sapiens, 96 h, 4 days incubation, CellTiterGLO, read-out: Anti-proliferation: OCI-LY-3 IC50
How it was run: as §1

[1] = molecular target: full-length MALT1 protein (Strep-MALT1(1-824)-His) (Homo sapiens (Human), UniProt Q9UDY8); test: MALT1 Biochemical Protease Assay (Ac-LRSR-AMC substrate); conditions: 10 nM FL MALT1, 200 μM Ac-LRSR-AMC, 4 h at RT; read-out: MALT1_Biochemical activity (Ac-LRSR-amc) IC50
Sequence of full-length MALT1 protein (Strep-MALT1(1-824)-His) (Q9UDY8 whole entry): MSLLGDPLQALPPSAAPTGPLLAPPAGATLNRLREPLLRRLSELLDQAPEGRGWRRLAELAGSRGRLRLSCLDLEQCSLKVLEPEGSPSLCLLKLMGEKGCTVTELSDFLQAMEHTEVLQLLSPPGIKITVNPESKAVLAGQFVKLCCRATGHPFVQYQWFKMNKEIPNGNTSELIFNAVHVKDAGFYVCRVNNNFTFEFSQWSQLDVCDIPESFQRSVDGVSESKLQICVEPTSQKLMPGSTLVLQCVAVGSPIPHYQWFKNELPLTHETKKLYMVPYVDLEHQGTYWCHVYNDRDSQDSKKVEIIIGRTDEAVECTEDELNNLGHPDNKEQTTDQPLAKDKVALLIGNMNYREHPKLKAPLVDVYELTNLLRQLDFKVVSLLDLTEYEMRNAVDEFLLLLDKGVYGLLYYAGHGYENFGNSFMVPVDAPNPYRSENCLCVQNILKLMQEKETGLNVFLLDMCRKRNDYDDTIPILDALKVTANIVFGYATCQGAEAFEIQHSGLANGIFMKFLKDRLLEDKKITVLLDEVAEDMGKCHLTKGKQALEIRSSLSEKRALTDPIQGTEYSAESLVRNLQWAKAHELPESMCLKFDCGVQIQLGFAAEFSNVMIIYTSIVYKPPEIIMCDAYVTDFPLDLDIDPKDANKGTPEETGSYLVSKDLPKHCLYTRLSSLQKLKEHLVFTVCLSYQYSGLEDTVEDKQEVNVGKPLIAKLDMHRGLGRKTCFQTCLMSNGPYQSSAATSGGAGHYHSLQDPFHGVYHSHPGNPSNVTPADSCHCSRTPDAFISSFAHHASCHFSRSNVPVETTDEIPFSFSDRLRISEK
How it was run: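 Fluorescence from AMC release off the quenched LRSR substrate was read after a 4 h reaction at RT. Values were normalised to no-enzyme and uninhibited controls and fitted for IC50 and Hill coefficient.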

[2] = tested on: IL6 secretion by TMD8 ABC-DLBCL cells; test: Human IL6 Mesoscale assay (TMD-8); type: cell-based; conditions: Homo sapiens, TMD8; TMD-8 cells, 24 h
How it was run: (§2)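 TMD8 or OCI-LY3 cells (100,000/well) were exposed to compounds in 9 twofold dilutions from 15 μM to 58.6 nM (0.3% DMSO) for 24 h at 37 °C. Supernatant IL6 and IL10 were quantified by MSD electrochemiluminescence immunoassay. DMSO defined maximum signal and BTK inhibitor RN486 (30 nM–131 pM) defined maximum inhibition.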

Jurkat cells = test: PMA Induced IL2 Production In Jurkat Cells; type: cell-based; conditions: Homo sapiens, PMA/Ionomycin, 20 h, read-out: IL-2 prod h Jurkat PMA IC50
Method: Jurkat cells were maintained in complete RPMI 1640 media containing 10% fetal bovine serum, 10 mM HEPES, 100 units/mL of penicillin and 100 μg/mL of streptomycin. Prior to the assay, compounds were made 2- to 4-fold serial dilutions in DMSO. A volume of 10 μL of DMSO-diluted compound in each well were further diluted into 240 μL RPMI1640 complete media. Jurkat cells were harvested by centrifuge at 1200 RPM for 5 min, washed one time with RPMI 1640 media, and suspended in fresh complete RPMI 1640 media at concentration of 1.25×10^6 cell/mL. A volume of 160 uL of Jurkat cells (2×10^5 cells) were seeded in each well of 96 well plate-bottom plates. A volume of 20 uL of diluted compound in RMPI 1640 complete media were added to each well and incubated with Jurkat cells for 30 min at 37° C. in a 5% CO2 incubator. A volume 20 μL of diluted PMA/Ionomycin (81 nM/1.3 uM respectively, ebioscience, catalog number 00-4970-93) in RMPI 1640 complete media were added to each well. After incubation at 37° C. in 5% CO2 incubator for 20 h, supernatants were harvested. IL-2 concentration was assessed by ELISA (IL2 Duoset, R&D Systems, catalog number DY202). Colorimetric intensity at 450 nm was read by Spectramax plate reader and analyzed with Softmax Pro software. Cell viability was assessed by Cell Titer Glo kit (Promega, catalog number G7571) using Victor Luminescence reader (Victor 3V 4202938 by Perkin Elmer).

[3] = tested on: IL6 secretion by OCI-LY3 ABC-DLBCL cells; test: Human IL6 Mesoscale assay (OCI-LY3); type: cell-based; conditions: Homo sapiens, 24 h
How it was run: as §2

[4] = tested on: IL10 secretion by TMD8 ABC-DLBCL cells; test: Human IL10 Mesoscale assay (TMD-8); type: cell-based; conditions: Homo sapiens, TMD8; TMD-8 cells, 24 h
How it was run: as §2

[5] = tested on: IL10 secretion by OCI-LY3 ABC-DLBCL cells; test: Human IL10 Mesoscale assay (OCI-LY3); type: cell-based; conditions: Homo sapiens, 24 h
How it was run: as §2

Compound	pIC50 (OCI-Ly3 cells)	pIC50 [1]	pIC50 [2]	pIC50 (Jurkat cells)	pIC50 [3]	pIC50 [4]	pIC50 [5]	pIC50 (TMD8 cells)
CC(C)c1c(C(=O)Nc2cnc(-n3nccn3)c(Cl)c2)cnn1-c1cccc2ncccc12 [Cpd 26, N-(5-chloro-6-(2H-1,2,3-triazol-2-yl)pyridin-3-yl)-5-isopropyl-1-(quinolin-5-yl)-1H-pyrazole-4-carboxamide]	5.32	6.20	6.24	6.10	–	–	–	5.06
O=C(Nc1ccnc(C(F)(F)F)c1)c1cnn(-c2cccc3ncccc23)c1C(F)(F)F [Cpd 6, 1-(Quinolin-5-yl)-5-(trifluoromethyl)-N-(2-(trifluoromethyl)pyridin-4-yl)-1H-pyrazole-4-carboxamide]	6.21	7.04	6.95	7.64	–	–	–	5.03
O=C(Nc1cnc(-c2ncco2)c(Cl)c1)c1cnn(-c2cccc3ccncc23)c1C(F)(F)F [Cpd 22, N-(5-chloro-6-(oxazol-2-yl)pyridin-3-yl)-1-(isoquinolin-8-yl)-5-(trifluoromethyl)-1H-pyrazole-4-carboxamide]	~6.51	6.18	< 4.82	5.73	–	–	–	4.77
COc1ncc(NC(=O)c2cnn(-c3cncc4ccccc34)c2C(F)(F)F)cc1Cl [Cpd 23, N-(5-chloro-6-methoxypyridin-3-yl)-1-(isoquinolin-4-yl)-5-(trifluoromethyl)-1H-pyrazole-4-carboxamide]	5.47	7.05	6.97	6.09	–	–	–	5.08
N#Cc1cc(NC(=O)c2cnn(-c3ccnc4ccccc34)c2C(F)(F)F)ccc1-n1nccn1	6.39	–	6.96	–	7.47	7.00	7.40	5.42
Cc1ccc(-n2ncc(C(=O)Nc3cnc(-n4nccn4)c(Cl)c3)c2C(F)(F)F)c2cccnc12 [Cpd 28, N-(5-Chloro-6-(2H-1,2,3-triazol-2-yl)pyridin-3-yl)-1-(8-methylquinolin-5-yl)-5-(trifluoromethyl)-1H-pyrazole-4-carboxamide]	5.82	7.17	6.85	6.70	–	–	–	5.18
O=C(Nc1cnc(-n2nccn2)c(Cl)c1)c1cnn(-c2cccc3ncc(F)cc23)c1C(F)(F)F [Cpd 25, N-(5-Chloro-6-(2H-1,2,3-triazol-2-yl)pyridin-3-yl)-1-(3-fluoroquinolin-5-yl)-5-(trifluoromethyl)-1H-pyrazole-4-carboxamide]	5.48	7.14	6.76	6.68	–	–	–	~4.85
N#Cc1cc(NC(=O)c2cnn(-c3cccc4ccccc34)c2C(F)(F)F)ccn1 [Cpd 1, N-(2-Cyanopyridin-4-yl)-1-(naphthalen-1-yl)-5-(trifluoromethyl)-1H-pyrazole-4-carboxamide]	–	6.41	–	6.51	–	–	–	–
O=C(Nc1cnc(-n2ncc(CO)n2)c(Cl)c1)c1cnn(-c2cccc3c(=O)[nH]ccc23)c1C(F)(F)F [Cpd 115, N-(5-chloro-6-(4-(hydroxymethyl)-2H-1,2,3-triazol-2-yl)pyridin-3-yl)-1-(1-oxo-1,2-dihydroisoquinolin-5-yl)-5-(trifluoromethyl)-1H-pyrazole-4-carboxamide]	5.92	7.92	7.27	–	7.89	7.34	8.00	4.70

Further lines, with some results ahead:

pIC50 (OCI-Ly3 cells)	pIC50 [1]	pIC50 [2]	pIC50 (Jurkat cells)	pIC50 [3]	pIC50 [4]	pIC50 [5]	Compound	pIC50 (TMD8 cells)
6.27	7.24	< 5.52	–	< 5.52	< 5.52	5.58	O=C(Nc1cnc(-n2nccn2)c(Cl)c1)c1cnn(-c2cccc3scnc23)c1C(F)(F)F [Cpd 306, 1-(benzo[d]thiazol-4-yl)-N-(5-chloro-6-(2H-1,2,3-triazol-2-yl)pyridin-3-yl)-5-(trifluoromethyl)-1H-pyrazole-4-carboxamide]	5.82
6.46	7.82	7.89	–	7.74	7.60	7.74	O=C(Nc1cnc(-n2nccn2)c(Cl)c1)c1cnn(-c2cccc3c(=O)[nH]ccc23)c1C(F)(F)F [Cpd 116, N-(5-chloro-6-(2H-1,2,3-triazol-2-yl)pyridin-3-yl)-1-(1-hydroxyisoquinolin-5-yl)-5-(trifluoromethyl)-1H-pyrazole-4-carboxamide]	5.16
6.09	7.64	6.77	–	7.59	6.70	7.77	CN(C)Cc1cnn(-c2ncc(NC(=O)c3cnn(-c4cccc5ncccc45)c3C(F)(F)F)cc2Cl)n1 [Cpd 137, N-(5-chloro-6-(4-((dimethylamino)methyl)-2H-1,2,3-triazol-2-yl)pyridin-3-yl)-1-(quinolin-5-yl)-5-(trifluoromethyl)-1H-pyrazole-4-carboxamide]	5.62
6.58	7.92	6.85	–	7.27	6.79	7.09	O=C(Nc1cnc(-n2nccn2)c(Cl)c1)c1cnn(-c2cccc3ncsc23)c1C(F)(F)F [Cpd 153, 1-(benzo[d]thiazol-7-yl)-N-(5-chloro-6-(2H-1,2,3-triazol-2-yl)pyridin-3-yl)-5-(trifluoromethyl)-1H-pyrazole-4-carboxamide]	5.42
6.75	7.80	6.92	–	7.74	6.91	7.85	O=C(Nc1ccc(-n2nccn2)c(Cl)c1)c1cnn(-c2cccc3c(=O)[nH]ccc23)c1C(F)(F)F [Cpd 129, N-(3-chloro-4-(2H-1,2,3-triazol-2-yl)phenyl)-1-(1-oxo-1,2-dihydroisoquinolin-5-yl)-5-(trifluoromethyl)-1H-pyrazole-4-carboxamide]	5.61
5.96	7.48	6.35	–	7.02	6.47	6.88	N#Cc1cc(NC(=O)c2cnn(-c3ncnc4ccsc34)c2C(F)(F)F)cnc1-n1nccn1 [Cpd 315, N-(5-cyano-6-(2H-1,2,3-triazol-2-yl)pyridin-3-yl)-1-(thieno[3,2-d]pyrimidin-4-yl)-5-(trifluoromethyl)-1H-pyrazole-4-carboxamide]	5.17
5.99	6.96	–	–	6.72	–	6.76	O=C(Nc1cncc(C(F)(F)F)c1)c1cnn(-c2cccc3c(=O)[nH]ccc23)c1C(F)(F)F [Cpd 167, 1-(1-oxo-1,2-dihydroisoquinolin-5-yl)-5-(trifluoromethyl)-N-(5-(trifluoromethyl)pyridin-3-yl)-1H-pyrazole-4-carboxamide]	5.34
5.88	7.68	–	–	7.01	–	7.08	O=C(Nc1cnc(-n2cc(CO)cn2)c(Cl)c1)c1cnn(-c2cccc3ncccc23)c1C(F)(F)F [Cpd 135, N-(5-chloro-6-(4-(hydroxymethyl)-1H-pyrazol-1-yl)pyridin-3-yl)-1-(quinolin-5-yl)-5-(trifluoromethyl)-1H-pyrazole-4-carboxamide]	5.51
5.90	7.64	–	–	5.75	–	6.04	Cn1ccc(-c2ncc(NC(=O)c3cnn(-c4cccc5c(=O)[nH]ccc45)c3C(F)(F)F)cc2Cl)n1 [Cpd 157, N-(5-chloro-6-(1-methyl-1H-pyrazol-3-yl)pyridin-3-yl)-1-(1-oxo-1,2-dihydroisoquinolin-5-yl)-5-(trifluoromethyl)-1H-pyrazole-4-carboxamide]	5.15
